Measured values taken from US20110097274A1, “Carbon-11 and fluorine-18 labeled radioligands for positron emission tomography (PET) imaging for the brain serotonin transporters” (priority 2002, published 2011).
Where two headings read alike, the source gives them in different places.

What was measured:
[1] = Biodistribution of labeled radioligands in male Sprague-Dawley rats; type: in vivo; details: mean ± SD, n = 3
From the text: Appropriately labeled compounds were studied in animals to assess their binding characteristics in the brain. Procedures for these biodistribution studies are as follows. […] The brain regions (cerebellum, hippocampus, striatum, frontal cortex, thalamus and hypothalamus), along with samples of blood and part of the tail, were removed, weighed, and counted in a Packard Cobra II gamma counter. The percent injected dose (% ID) of the decay- and tail-corrected activity in the brain regions and blood were calculated based upon C-11 standards prepared from the injection solution, and the % ID/g were calculated using the tissue weights.

[2] = Experiment 5: plasma clearance of ^11C and ^18F labeled AFM, AFA, AFE in one baboon; type: in vivo; details: one adult male baboon, n = 1 to 4 scans
Experimental: (§1) General scanning methods were as described in Huang et al. (2002). Arterial input function was measured and corrected for metabolites.

[3] = test system: SERT; experiment: Experiment 5: PET brain imaging of ^11C and ^18F labeled AFM, AFA, AFE in one baboon; type: in vivo; details: one adult male baboon, n = 1 to 4 scans, two-compartment model
Experimental: as §1
Activity distributed in the brain in accordance to the known density distribution pattern of SERT (Laruelle et al., 1988). […] Data were analyzed with a two-compartment model, using the metabolite-corrected arterial time-activity curve as input function. This analysis provided the regional distribution volumes (VT, mL/g).
The nonspecific distribution volume, measured as the distribution volume of the cerebellum (a region with negligible SERT density) was in a similar range for all tracers (10 to 30 mL/g, Table 16).
The specific to nonspecific partition coefficient, V3″, was calculated as the ratio of VT in the region of interest (ROI) to cerebellum VT minus one. V3″ provides a measure related to receptor parameters as follows: […]

[4] = biological target: T1, serotonin transporter (SERT) (Rattus norvegicus, UniProt P31652); experiment: In vitro binding affinity for SERT, radioligand [^3H]paroxetine (Table 1); set-up: species or system rat or human (cloned)
T1 construct: membranes prepared from either the rat cortical tissues or cells expressed with cloned-human transporters; from tissue; host or cells: rat cortical tissue membranes (inferred; the alternative is cells expressing cloned human SERT)
Experimental: (§2) Selected compounds were assayed in vitro for their binding affinity for the dopamine transporter (DAT), serotonin transporter (SERT), and norepinephrine transporter (NET) using membranes prepared from either the rat cortical tissues or cells expressed with cloned-human transporters and radioligands. Radioligands used were [^3H]paroxetine (SERT), [^3H]nisoxetine (NET), and [^3H]GBR12935 (DAT).

[5] = biological target: T2, dopamine transporter (DAT) (Homo sapiens, UniProt Q01959); experiment: In vitro binding affinity for DAT, radioligand [^3H]GBR12935 (Table 1); set-up: species or system rat or human (cloned)
T2 construct: host or cells: either rat cortical tissue or cells expressing the cloned human transporter
Experimental: as §2

[6] = biological target: T3, norepinephrine transporter (NET) (Homo sapiens, UniProt P23975); experiment: In vitro binding affinity for NET, radioligand [^3H]nisoxetine (Table 1); set-up: species or system rat or human (cloned)
T3 construct: host or cells: either rat cortical tissue or cells expressing the cloned human transporter
Experimental: as §2

T1 sequence (P31652 whole entry): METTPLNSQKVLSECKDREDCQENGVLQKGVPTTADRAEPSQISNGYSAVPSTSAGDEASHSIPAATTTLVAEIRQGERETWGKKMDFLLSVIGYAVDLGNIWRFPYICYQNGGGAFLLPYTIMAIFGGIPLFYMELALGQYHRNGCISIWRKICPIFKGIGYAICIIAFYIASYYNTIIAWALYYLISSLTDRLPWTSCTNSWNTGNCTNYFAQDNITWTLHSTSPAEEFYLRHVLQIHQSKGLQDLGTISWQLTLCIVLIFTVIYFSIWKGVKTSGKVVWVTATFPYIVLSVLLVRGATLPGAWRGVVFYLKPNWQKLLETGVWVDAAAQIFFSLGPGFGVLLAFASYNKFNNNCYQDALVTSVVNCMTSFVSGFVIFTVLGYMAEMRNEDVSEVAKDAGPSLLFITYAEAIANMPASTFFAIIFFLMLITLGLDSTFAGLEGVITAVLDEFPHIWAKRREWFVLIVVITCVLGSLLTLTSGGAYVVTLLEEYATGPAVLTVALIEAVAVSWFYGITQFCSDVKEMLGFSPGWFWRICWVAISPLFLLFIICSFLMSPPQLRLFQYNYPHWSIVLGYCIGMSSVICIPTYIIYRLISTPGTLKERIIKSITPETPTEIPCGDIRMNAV
T3 sequence (P23975 whole entry, species assumed): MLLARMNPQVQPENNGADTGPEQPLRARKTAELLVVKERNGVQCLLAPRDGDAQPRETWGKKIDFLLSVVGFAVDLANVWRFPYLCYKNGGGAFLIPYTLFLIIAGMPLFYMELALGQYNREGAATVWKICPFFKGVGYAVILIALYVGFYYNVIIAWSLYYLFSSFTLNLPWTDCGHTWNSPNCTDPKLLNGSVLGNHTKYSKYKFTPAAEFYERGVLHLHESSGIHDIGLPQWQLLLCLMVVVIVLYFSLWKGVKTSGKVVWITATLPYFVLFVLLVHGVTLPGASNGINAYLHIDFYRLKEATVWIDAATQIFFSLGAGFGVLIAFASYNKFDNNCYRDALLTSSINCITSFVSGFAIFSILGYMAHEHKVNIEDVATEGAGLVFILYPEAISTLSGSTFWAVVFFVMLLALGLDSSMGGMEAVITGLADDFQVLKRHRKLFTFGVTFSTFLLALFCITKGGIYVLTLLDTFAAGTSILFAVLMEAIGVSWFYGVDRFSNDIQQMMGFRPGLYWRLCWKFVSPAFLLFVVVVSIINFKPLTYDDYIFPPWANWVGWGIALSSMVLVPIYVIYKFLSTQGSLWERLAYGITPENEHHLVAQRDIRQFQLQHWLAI
T2 sequence (Q01959 whole entry, species assumed): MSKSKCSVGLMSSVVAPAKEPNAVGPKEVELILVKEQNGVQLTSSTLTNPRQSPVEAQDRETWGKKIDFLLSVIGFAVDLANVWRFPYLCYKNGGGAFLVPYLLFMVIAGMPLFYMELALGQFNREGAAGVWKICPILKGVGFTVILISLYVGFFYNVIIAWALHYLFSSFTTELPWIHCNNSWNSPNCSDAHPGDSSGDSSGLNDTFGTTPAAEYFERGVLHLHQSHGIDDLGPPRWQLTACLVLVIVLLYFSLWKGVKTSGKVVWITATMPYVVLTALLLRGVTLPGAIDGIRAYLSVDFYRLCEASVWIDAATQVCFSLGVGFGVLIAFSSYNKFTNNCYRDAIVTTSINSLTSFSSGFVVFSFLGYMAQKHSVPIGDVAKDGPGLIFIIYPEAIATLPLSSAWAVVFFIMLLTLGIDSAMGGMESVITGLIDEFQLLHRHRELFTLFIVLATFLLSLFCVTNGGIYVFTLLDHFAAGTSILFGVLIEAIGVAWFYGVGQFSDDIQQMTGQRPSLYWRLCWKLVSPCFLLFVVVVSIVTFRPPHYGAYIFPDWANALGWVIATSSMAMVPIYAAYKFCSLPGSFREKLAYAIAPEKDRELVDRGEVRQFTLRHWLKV

SMILES	% ID/g Blood ([1]; 10 min post-injection) [% ID/g]	% ID/g Cerebellum ([1]; 10 min post-injection) [% ID/g]	% ID/g Frontal Ctx. ([1]; 10 min post-injection) [% ID/g]	% ID/g Hippocamp. ([1]; 10 min post-injection) [% ID/g]	% ID/g Hypothal. ([1]; 10 min post-injection) [% ID/g]	% ID/g Striatum ([1]; 10 min post-injection) [% ID/g]	% ID/g Thalamus ([1]; 10 min post-injection) [% ID/g]	% ID/g Blood ([1]; 30 min post-injection) [% ID/g]	% ID/g Cerebellum ([1]; 30 min post-injection) [% ID/g]	% ID/g Frontal Ctx. ([1]; 30 min post-injection) [% ID/g]	% ID/g Hippocamp. ([1]; 30 min post-injection) [% ID/g]	% ID/g Hypothal. ([1]; 30 min post-injection) [% ID/g]	% ID/g Striatum ([1]; 30 min post-injection) [% ID/g]	% ID/g Thalamus ([1]; 30 min post-injection) [% ID/g]	% ID/g Blood ([1]; 60 min post-injection) [% ID/g]	% ID/g Cerebellum ([1]; 60 min post-injection) [% ID/g]	% ID/g Frontal Ctx. ([1]; 60 min post-injection) [% ID/g]	% ID/g Hippocamp. ([1]; 60 min post-injection) [% ID/g]	% ID/g Hypothal. ([1]; 60 min post-injection) [% ID/g]	% ID/g Striatum ([1]; 60 min post-injection) [% ID/g]	further results
CN(C)Cc1ccccc1Sc1ccc(CCF)cc1N [[^11C]AFE, [^11C]2-[2-(Dimethylaminomethyl)phenylthio]-5-fluoroethylphenylamine]	0.15 ± 0.03	0.31 ± 0.03	0.61 ± 0.07	0.44 ± 0.04	0.61 ± 0.11	0.58 ± 0.08	0.63 ± 0.08	0.07 ± 0.01	0.12 ± 0.00	0.39 ± 0.03	0.31 ± 0.03	0.44 ± 0.04	0.35 ± 0.05	0.44 ± 0.05	0.05 ± 0.01	0.05 ± 0.00	0.19 ± 0.02	0.18 ± 0.02	0.29 ± 0.03	0.19 ± 0.02	% ID/g Thalamus ([1]; 60 min post-injection): 0.22 ± 0.01 % ID/g; Clearance [2]: 73 L/h; Cerebellum V (nonspecific distribution volume) [3]: 16 mL/g
CN(C)Cc1ccccc1Sc1ccc(CCF)cc1N [AFE, 2-(2-(Dimethylaminomethyl)phenylthio)-5-(2-fluoroethyl)phenylamine]	–	–	–	–	–	–	–	–	–	–	–	–	–	–	–	–	–	–	–	–	Ki [4]: 1.88 nM; Ki [5]: > 10000 nM; Ki [6]: 946 nM
CN(C)Cc1ccccc1Sc1ccc(CCCF)cc1N [AFP, 2-(2-(Dimethylaminomethyl)phenylthio)-5-(3-fluoropropyl)-phenylamine]	–	–	–	–	–	–	–	–	–	–	–	–	–	–	–	–	–	–	–	–	Ki [4]: 3.58 nM; Ki [5]: > 10000 nM; Ki [6]: 505 nM
CN([11CH3])Cc1ccccc1Sc1ccc(F)cc1N [[^11C]AFA, [^11C]2-[2-(Dimethylaminomethyl)phenylthio]-5-fluorophenylamine]	0.26 ± 0.10	0.35 ± 0.12	0.70 ± 0.25	0.48 ± 0.17	0.55 ± 0.18	0.54 ± 0.18	0.60 ± 0.24	0.08 ± 0.01	0.14 ± 0.02	0.49 ± 0.06	0.34 ± 0.02	0.47 ± 0.06	0.38 ± 0.14	0.44 ± 0.05	0.06 ± 0.01	0.09 ± 0.02	0.29 ± 0.05	0.24 ± 0.03	0.42 ± 0.06	0.26 ± 0.04	% ID/g Thalamus ([1]; 60 min post-injection): 0.39 ± 0.04 % ID/g; Clearance [2]: 54 ± 6 L/h; Cerebellum V (nonspecific distribution volume) [3]: 13 ± 3 mL/g
Cc1ccc(Sc2ccccc2CN(C)C)c(N)c1 [MADAM, 2-(2-(Dimethylaminomethyl)phenylthio)-5-methylphenylamine]	–	–	–	–	–	–	–	–	–	–	–	–	–	–	–	–	–	–	–	–	Ki [4]: 1.19 nM; Ki [5]: > 10000 nM; Ki [6]: 320 nM
CN(C)Cc1ccccc1Sc1ccc(CC[18F])cc1N [[^18F]AFE, [^18F]2-[2-(Dimethylaminomethyl)phenylthio]-5-(2-fluoroethyl)phenylamine]	0.25 ± 0.01	0.28 ± 0.02	0.62 ± 0.08	0.38 ± 0.03	0.51 ± 0.05	0.51 ± 0.05	0.58 ± 0.08	0.13 ± 0.03	0.13 ± 0.01	0.32 ± 0.01	0.27 ± 0.04	0.41 ± 0.03	0.33 ± 0.01	0.39 ± 0.01	0.07 ± 0.02	0.06 ± 0.01	0.19 ± 0.04	0.17 ± 0.04	0.24 ± 0.04	0.21 ± 0.05	% ID/g Thalamus ([1]; 60 min post-injection): 0.27 ± 0.04 % ID/g; % ID/g Blood ([1]; 90 min post-injection): 0.04 ± 0.01 % ID/g; % ID/g Cerebellum ([1]; 90 min post-injection): 0.03 ± 0.01 % ID/g; % ID/g Frontal Ctx. ([1]; 90 min post-injection): 0.08 ± 0.01 % ID/g; % ID/g Hippocamp. ([1]; 90 min post-injection): 0.09 ± 0.01 % ID/g; % ID/g Hypothal. ([1]; 90 min post-injection): 0.14 ± 0.02 % ID/g; % ID/g Striatum ([1]; 90 min post-injection): 0.10 ± 0.02 % ID/g; % ID/g Thalamus ([1]; 90 min post-injection): 0.17 ± 0.02 % ID/g; % ID/g Blood ([1]; 120 min post-injection): 0.02 ± 0.01 % ID/g; % ID/g Cerebellum ([1]; 120 min post-injection): 0.02 ± 0.00 % ID/g; % ID/g Frontal Ctx. ([1]; 120 min post-injection): 0.06 ± 0.00 % ID/g; % ID/g Hippocamp. ([1]; 120 min post-injection): 0.07 ± 0.00 % ID/g; % ID/g Hypothal. ([1]; 120 min post-injection): 0.10 ± 0.01 % ID/g; % ID/g Striatum ([1]; 120 min post-injection): 0.08 ± 0.01 % ID/g; % ID/g Thalamus ([1]; 120 min post-injection): 0.13 ± 0.02 % ID/g; Clearance [2]: 71 L/h; Cerebellum V (nonspecific distribution volume) [3]: 19 mL/g
CN(C)Cc1ccccc1Sc1ccc([18F])cc1N [[^18F]AFA, [^18F]2-[2-(Dimethylaminomethyl)phenylthio]-5-fluorophenylamine]	0.27 ± 0.01	0.38 ± 0.09	0.81 ± 0.26	0.54 ± 0.17	0.73 ± 0.26	0.65 ± 0.18	0.72 ± 0.24	0.16 ± 0.01	0.20 ± 0.01	0.65 ± 0.08	0.48 ± 0.02	0.66 ± 0.05	0.58 ± 0.05	0.69 ± 0.03	0.09 ± 0.00	0.07 ± 0.01	0.28 ± 0.05	0.23 ± 0.04	0.38 ± 0.03	0.26 ± 0.02	% ID/g Thalamus ([1]; 60 min post-injection): 0.34 ± 0.05 % ID/g; % ID/g Blood ([1]; 90 min post-injection): 0.08 ± 0.01 % ID/g; % ID/g Cerebellum ([1]; 90 min post-injection): 0.05 ± 0.01 % ID/g; % ID/g Frontal Ctx. ([1]; 90 min post-injection): 0.20 ± 0.02 % ID/g; % ID/g Hippocamp. ([1]; 90 min post-injection): 0.18 ± 0.01 % ID/g; % ID/g Hypothal. ([1]; 90 min post-injection): 0.30 ± 0.06 % ID/g; % ID/g Striatum ([1]; 90 min post-injection): 0.19 ± 0.01 % ID/g; % ID/g Thalamus ([1]; 90 min post-injection): 0.23 ± 0.05 % ID/g; % ID/g Blood ([1]; 120 min post-injection): 0.07 ± 0.01 % ID/g; % ID/g Cerebellum ([1]; 120 min post-injection): 0.04 ± 0.00 % ID/g; % ID/g Frontal Ctx. ([1]; 120 min post-injection): 0.11 ± 0.02 % ID/g; % ID/g Hippocamp. ([1]; 120 min post-injection): 0.10 ± 0.01 % ID/g; % ID/g Hypothal. ([1]; 120 min post-injection): 0.17 ± 0.01 % ID/g; % ID/g Striatum ([1]; 120 min post-injection): 0.11 ± 0.02 % ID/g; % ID/g Thalamus ([1]; 120 min post-injection): 0.16 ± 0.02 % ID/g; Clearance [2]: 68 L/h; Cerebellum V (nonspecific distribution volume) [3]: 24 mL/g
CN(C)Cc1ccccc1Sc1ccc(F)cc1N [AFA, 2-(2-(Dimethylaminomethyl)phenylthio)-5-fluorophenylamine]	–	–	–	–	–	–	–	–	–	–	–	–	–	–	–	–	–	–	–	–	Ki ([4]; read-out: Ki SERT): 1.46 nM; Ki [5]: > 10000 nM; Ki [6]: 142 nM
Cc1ccc(Sc2ccccc2CN(C)[11CH3])c(N)c1 [[^11C]MADAM, [^11C]2-[2-(Dimethylaminomethyl)phenylthio]-5-methylphenylamine]	0.61 ± 0.15	1.04 ± 0.33	2.17 ± 0.78	1.39 ± 0.29	1.93 ± 0.72	1.57 ± 0.54	1.95 ± 0.61	0.26 ± 0.07	0.55 ± 0.04	1.78 ± 0.23	1.14 ± 0.17	1.48 ± 0.22	1.41 ± 0.21	1.66 ± 0.17	0.15 ± 0.04	0.27 ± 0.01	0.89 ± 0.07	0.84 ± 0.27	1.39 ± 0.28	0.81 ± 0.15	% ID/g Thalamus ([1]; 60 min post-injection): 1.14 ± 0.18 % ID/g
